Tested on: hydrolases SEQ ID NO: 1-41
Test: Analysis of substrate spectrum of hydrolases (TLC, HPLC-MS, GC-MS); further: key: '+'- active; ' –' inactive towards derivative
Assay type: biochemical
Method: A hydrolytic activity of enzymes was analysed by thin-layer chromatography (TLC), high-performance liquid chromatography and a mass spectrometry (HPLC-MS) and Gas chromatography and a mass spectrometry (GC-MS) methods. Nucleosides, as substrates and hydrolysis reaction products, were tested by thin-layer chromatography (TLC) method and by a high-performance liquid chromatography - mass spectroscopy (HPLC-MS) method. Other reaction products were detected by Gas chromatography-Mass spectrometry (GC-MS) system. […] The conditions of the reactions are given below.
Hydrolysis products test by thin-layer chromatography (TLC) method. A hydrolytic activity was assayed in reaction mixture containing 45 mM potassium phosphate buffer, pH 7.5, 1 µl enzyme (0.1-4.6 µg/reaction) and 4 mM substrate. The total reaction mix volume was 20 µl. Reaction mixture were incubated at 30 °C temperature up to 3 h and at RT overnight. Thin-layer chromatography (TLC) was conducted on the Merck silica gel 60 F254 plates, using the chloroform and methanol (5:1) mixture of solvents.
High-performance liquid chromatography/mass spectrometry (HPLC-MS) analysis of hydrolysis reaction products. […] Mass scans were measured from m/z 10 up to m/z 500, at 350 °C interface temperature, 250 °C DL temperature, ±4,500 V interface voltage, neutral DL/Qarray, using N 2 as nebulizing and drying gas. Mass spectrometry data was acquired in both the positive and negative ionization mode. The data was analysed using the LabSolutions LCMS software. For HPLC-MS analysis, the reaction mixture consisted of 45 mM potassium phosphate buffer (pH 7.5), 2 mM substrate (from 50-100 mM stock in DMSO), and protein (-0.5-1 mg/ ml). Reaction mixture was incubated at 30 °C temperature up to 3 h and at RT overnight.
Gas chromatography-Mass spectrometry (GC-MS) analysis of hydrolysis reaction products. GC-MS analyses were performed with a Shimadzu GCMS-QP2010 Ultra Plus (Kyoto, Japan). […] Temperature program -50°C (1 min), 50°C →250 °C (25 °C/min), total run time - 15 min. The temperatures of injector, interface and ion source were 250°C.
For GC-MS analysis, the reaction mixture consisted of 45 mM potassium phosphate buffer (pH 7.5), 2.4 mM substrate (from 50-100 mM stock in DMSO), and protein (-0.5-1 mg/ ml). The total reaction mix volume was 1000 µl. The hydrolysis reaction products were extracted with ethyl acetate (3x 400 µl).

Measured: Hydrolysis of S^4-alkyl uridine derivatives

O=c1nc(Sc2ccccc2)c(F)cn1[C@@H]1O[C@H](CO)[C@@H](O)[C@H]1O [5F-4-S-phenyl-U]
+: enzyme SEQ ID No:1 | enzyme SEQ ID No:4 | enzyme SEQ ID No:35 | enzyme SEQ ID No:38

O=c1nc(SCc2ccccc2)c(F)cn1[C@@H]1O[C@H](CO)[C@@H](O)[C@H]1O [5-F-4-S-benzyl-U]
+: enzyme SEQ ID No:1 | enzyme SEQ ID No:2 | enzyme SEQ ID No:3 | enzyme SEQ ID No:4 | enzyme SEQ ID No:9 | enzyme SEQ ID No:25 | enzyme SEQ ID No:30 | enzyme SEQ ID No:34 | enzyme SEQ ID No:35

CSc1nc(=O)n([C@@H]2O[C@H](CO)[C@@H](O)[C@H]2O)cc1F [5-F-4-S-methyl-U]
+: enzyme SEQ ID No:1 | enzyme SEQ ID No:2 | enzyme SEQ ID No:3 | enzyme SEQ ID No:4 | enzyme SEQ ID No:6 | enzyme SEQ ID No:9 | enzyme SEQ ID No:25 | enzyme SEQ ID No:26 | enzyme SEQ ID No:27 | enzyme SEQ ID No:28 | enzyme SEQ ID No:29 | enzyme SEQ ID No:30 | enzyme SEQ ID No:32 | enzyme SEQ ID No:33 | enzyme SEQ ID No:34 | enzyme SEQ ID No:35 | enzyme SEQ ID No:36 | enzyme SEQ ID No:37 | enzyme SEQ ID No:38

CCSc1ccn([C@@H]2O[C@H](CO)[C@@H](O)[C@H]2O)c(=O)n1 [4-S-ethyl-U]
+: enzyme SEQ ID No:1 | enzyme SEQ ID No:2 | enzyme SEQ ID No:3 | enzyme SEQ ID No:4 | enzyme SEQ ID No:6 | enzyme SEQ ID No:9 | enzyme SEQ ID No:21 | enzyme SEQ ID No:25 | enzyme SEQ ID No:26 | enzyme SEQ ID No:27 | enzyme SEQ ID No:28 | enzyme SEQ ID No:29 | enzyme SEQ ID No:30 | enzyme SEQ ID No:31 | enzyme SEQ ID No:32 | enzyme SEQ ID No:33 | enzyme SEQ ID No:34 | enzyme SEQ ID No:35 | enzyme SEQ ID No:36 | enzyme SEQ ID No:37 | enzyme SEQ ID No:38 | enzyme SEQ ID No:39 | enzyme SEQ ID No:40 | enzyme SEQ ID No:41

CC(C)Sc1ccn([C@@H]2O[C@H](CO)[C@@H](O)[C@H]2O)c(=O)n1 [4-S-iso-propyl-U]
+: enzyme SEQ ID No:1 | enzyme SEQ ID No:3 | enzyme SEQ ID No:4

O=c1nc(SCc2ccccc2)ccn1[C@@H]1O[C@H](CO)[C@@H](O)[C@H]1O [4-S-benzyl-U]
+: enzyme SEQ ID No:1 | enzyme SEQ ID No:2 | enzyme SEQ ID No:3 | enzyme SEQ ID No:4 | enzyme SEQ ID No:9 | enzyme SEQ ID No:10 | enzyme SEQ ID No:13 | enzyme SEQ ID No:14 | enzyme SEQ ID No:21 | enzyme SEQ ID No:25 | enzyme SEQ ID No:28 | enzyme SEQ ID No:30 | enzyme SEQ ID No:34 | enzyme SEQ ID No:35 | enzyme SEQ ID No:38 | enzyme SEQ ID No:39 | enzyme SEQ ID No:41

CCCSc1ccn([C@@H]2O[C@H](CO)[C@@H](O)[C@H]2O)c(=O)n1 [4-S-n-propyl-U]
+: enzyme SEQ ID No:1 | enzyme SEQ ID No:3 | enzyme SEQ ID No:4

CC(C)CSc1ccn([C@@H]2O[C@H](CO)[C@@H](O)[C@H]2O)c(=O)n1 [4-S-iso-butyl-U]
+: enzyme SEQ ID No:1 | enzyme SEQ ID No:3 | enzyme SEQ ID No:4

CCSc1nc(=O)n([C@@H]2O[C@H](CO)[C@@H](O)[C@H]2O)cc1F [5-F-4-S-ethyl-U]
+: enzyme SEQ ID No:1 | enzyme SEQ ID No:2 | enzyme SEQ ID No:3 | enzyme SEQ ID No:4 | enzyme SEQ ID No:6 | enzyme SEQ ID No:9 | enzyme SEQ ID No:25 | enzyme SEQ ID No:27 | enzyme SEQ ID No:28 | enzyme SEQ ID No:30 | enzyme SEQ ID No:32 | enzyme SEQ ID No:34 | enzyme SEQ ID No:35 | enzyme SEQ ID No:36 | enzyme SEQ ID No:37 | enzyme SEQ ID No:38
